Laboratory results reported in patent US8492418B2, “Method of treating schizophrenia prodrome” (Yale University, priority 2005, dated 2013).
Like-named read-outs stand apart in the source and are kept apart here.

What was measured:
[1] = tested on: acutely exacerbated patients (schizophrenia); details: 65 acutely exacerbated patients, in addition to antipsychotic; cited from earlier work
[2] = tested on: prodromal patients (schizophrenia prodrome); test: ongoing unpublished open label trial of ethyl-EPA, design nearly identical to the glycine pilot study; format: in vivo, human; details: 8 weeks, n=7
Description: Group SOPS change analysis. […] The effect sizes observed with glycine are substantially larger than those observed in my parallel studies with other medications (Table 2). Data for the placebo and olanzapine samples shown are from the published double blind randomized comparison of olanzapine vs placebo (Woods et al., 2003). […] The very large differences between the glycine effect sizes and the placebo effect sizes provide strong support for efficacy. The large differences between the glycine effect sizes and the olanzapine effect sizes are also impressive.

[3] = biological target: glycine binding site of the NMDA receptor (Homo sapiens, UniProt Q05586); details: partial agonist; cited from earlier work
[4] = tested on: chronic patients with persistent negative symptoms (schizophrenia); details: 157 chronic patients, four sites, adjunctive treatment vs placebo; cited from earlier work
[5] = tested on: prodromal patients; details: risperidone plus cognitive therapy plus usual care; 59 patients randomized; cited from earlier work
[6] = tested on: prodromal patients (schizophrenia prodrome)
Description: I therefore treated 10 patients meeting criteria for the schizophrenia prodrome with the NMDA […] glycine, used alone without antipsychotic medication. […] To my knowledge, this represents the first attempt to use direct or indirect NMDA/glycine agonists for patients with the schizophrenia prodrome.
The inventor of the present invention enrolled 10 prodromal patients in an eight-week open label trial of oral glycine. The patients were seven males and three females, whose mean±sd age was 17.3±3.3 years. All ten patients met schizophrenia prodrome diagnostic criteria, attenuated positive symptom subgroup, according to the Structured Interview for Prodromal Syndromes (Miller et al., 2002). The mean Scale of Prodromal Symptoms (SOPS) total score at baseline was 39.7, and the positive and negative subscale score means were respectively 11.3 and 12.4 (Table 1).
Glycine was administered orally as powder mixed with water at a dose titrated to 0.4 g/kg BID by week two. Concomitant medications were continued so long as there had been no dose adjustments in the eight weeks prior to enrollment and the patient continued to meet prodromal symptomatic criteria at baseline. Efficacy was assessed using the Scale of Prodromal Symptoms (SOPS). The SOPS consists of 19 items, each scored 0-6, and yields a total score and positive symptom (5 items), negative symptom (six items), disorganization (4 items), and general symptom (4 items) subscale scores.
Categorical outcomes. […] These criteria required all five positive symptom ratings to be below the prodromal range (2 or below).
Group SOPS change analysis. […] Data for the placebo and olanzapine samples shown are from the published double blind randomized comparison of olanzapine vs placebo (Woods et al., 2003). Data for ethyl-EPA (an omega-3 fatty acid) are from an ongoing unpublished open label trial that follows a design nearly identical to the current glycine pilot study.
To accomplish this we modified for the one sample case the sequential monitoring method of O'Brien and Fleming that protects the overall alpha from […] due to multiple looks (Woods and McGlashan, 2002). […] Analyses were planned every 5 patients.

[7] = 8 weeks, n=10, baseline score as covariate
[8] = 8 weeks, open label glycine, n=10
[9] = endpoint (LOCF) minus baseline, 8 weeks, n=10
[10] = oral glycine titrated to 0.4 g/kg BID, 8 weeks, LOCF, n=10

## CNCC(=O)O [sarcosine]
[1]
  separation from placebo: did

## CC/C=C\C/C=C\C/C=C\C/C=C\C/C=C\CCCC(=O)OCC [Ethyl-EPA, ethyl-EPA]
[2]
  SOPS LOCF within group effect size, DIS: −0.05
  SOPS LOCF within group effect size, GEN: −0.17
  SOPS LOCF within group effect size, NEG: 0.24
  SOPS LOCF within group effect size, POS: 0.47
  SOPS LOCF within group effect size, TOTAL: 0.18

## NC1CONC1=O [D-cycloserine, 4-aminoisoxazolidin-3-one, reference compound]
[3]
  activation relative to that seen with glycine, D-alanine or D-serine: 40-60%
[4]
  difference among treatment groups: no significant differences overall among groups

## Cc1nc2n(c(=O)c1CCN1CCC(c3noc4cc(F)ccc34)CC1)CCCC2 [risperidone]
[5]
  six month conversion to psychosis rate: 9.7%

## NCC(=O)O [Glycine, glycine]
[6]; 8 weeks, n=10
  group SOPS change, LOCF analysis: improved significantly as a group on the total score and on all four subscales
  group SOPS change, MMRM analysis: improved significantly as a group on the total score and on 3/4 subscales
[6]; [7]
  MMRM-based within group SOPS improvement, DIS: 3.9 ± 2.2
  MMRM-based within group SOPS improvement, GEN: 4.1 ± 3.5
  MMRM-based within group SOPS improvement, NEG: 3.0 ± 5.2
  MMRM-based within group SOPS improvement, POS: 7.4 ± 3.2
  MMRM-based within group SOPS improvement, TOTAL: 18.2 ± 9.9
[6]; [8]
  SOPS LOCF within group effect size, DIS: 1.05
  SOPS LOCF within group effect size, GEN: 1.12
  SOPS LOCF within group effect size, NEG: 0.74
  SOPS LOCF within group effect size, POS: 1.10
  SOPS LOCF within group effect size, TOTAL: 1.39
[6]; 10 glycine-treated patients, 8 weeks
  conversion to psychosis: None of the glycine-treated patients converted to psychosis
[6]; O'Brien and Fleming method modified for one sample
  sequential monitoring vs historical placebo (sufficiency): crossed the decision boundary for sufficiency after 10 patients
[6]; baseline, before glycine, disorganization subscale, n=10
  SOPS DIS score, baseline mean: 6.5
[6]; baseline, before glycine, general symptom subscale, n=10
  SOPS GEN score, baseline mean: 9.5
[6]; baseline, before glycine, n=10
  SOPS TOTAL score, baseline mean: 39.7
[6]; baseline, before glycine, negative symptom subscale, n=10
  SOPS NEG score, baseline mean: 12.4
[6]; baseline, before glycine, positive symptom subscale, n=10
  SOPS POS score, baseline mean: 11.3
[6]; [9]
  SOPS DIS endpoint change, mean: −3.1
  SOPS GEN endpoint change, mean: −3.5
  SOPS NEG endpoint change, mean: −3.0
  SOPS POS endpoint change, mean: −5.7
  SOPS TOTAL endpoint change, mean: −15.3
[6]; of the seven completers, during 8 weeks on glycine
  early remission criteria met (all five positive symptom ratings 2 or below): three met early remission criteria
[6]; [10]
  SOPS DIS score, endpoint (LOCF) mean: 3.4
  SOPS GEN score, endpoint (LOCF) mean: 6.0
  SOPS NEG score, endpoint (LOCF) mean: 9.4
  SOPS POS score, endpoint (LOCF) mean: 5.6
  SOPS TOTAL score, endpoint (LOCF) mean: 24.4
[4]
  difference among treatment groups: no significant differences overall among groups

## N[C@H](CO)C(=O)O [D-serine]
[1]
  separation from placebo: did not separate from placebo
